Experimental data published in patent publication US8715745B2 (priority 2009, dated 2014).

Columns and labels:
[1] = test system: Ustilago maydis; assay: In vitro fungitoxicity (growth inhibition) against Ustilago maydis in copper-minus and copper-plus medium; format: cell-based; conditions: for % Inhn. Plus copper Predicted: 1 μg/mL, Colby formula
Description: (§1) In vitro fungitoxicity assays against Ustilago maydis were conducted using the copper-minus medium described in Example 5. Medium containing copper was prepared by adding CuCl2.2H2O to the copper-minus medium at 20 μM. Test compounds were dissolved in dimethylsulfoxide (DMSO) at 200 μg/mL and 1 μL aliquots were added to two wells of flat-bottomed 96-well microtiter plates. Copper-minus medium (100 μL) was added to one of the wells and copper-plus medium to the second well. Control wells, included for each medium, received 1 uL DMSO and 100 μL of medium.
Ustilago maydis was grown in 50 mL potato dextrose broth with shaking at 25° C. for 24 h. A 10 mL aliquot of the culture was centrifuged at 2000 rpm for 2 min, resuspended in 10 mL of sterile Chelex 100-treated water, and centrifuged again. The spores were resuspended in copper-minus medium, and the suspension adjusted to a concentration of 1×10^5 spores per mL. Microtiter plate wells containing test compound of DMSO (control) as described above were inoculated with 100 μL of this spore suspension and the plates incubated at 25° C. for 48 h before assessing fungal growth by measuring light scattering in a NepheloStar plate reader. Growth inhibition was determined by comparing growth in the presence of test compound with growth in control wells lacking test compound.
Results for growth inhibition by test compounds at 1 μg/mL in copper-plus medium (“% Inhn Plus Copper Observed”) were compared with predicted results (“% Inhn Plus Copper Predicted”) that were calculated using the formula set forth by S. R. Colby in Weeds 1967, 15, 20-22 based on results obtained for the same compounds in copper-minus medium (“% Inhn Minus Copper Observed”) and the inhibition attributed to copper chloride alone, as determined by comparing growth in copper-minus and copper-plus media without any test compound. Results illustrate that hydrazones and copper produce a synergistic fungitoxic effect towards Ustilago maydis.

[2] = test system: Phytophthora capsici; assay: In vitro fungitoxicity (growth inhibition) against Phytophthora capsici in copper-minus AS and copper-plus AS medium; format: cell-based; conditions: for % Inhn Plus copper Predicted: 0.050 μg/mL, Colby formula
Description: In vitro fungitoxicity assays against Phytophthora capsici were conducted using the asparagine-sucrose (AS) medium described in Canadian Journal of Microbiology 1961, 7, 15-25, except that copper micronutrient, normally included as CuSO4, was omitted. The medium, termed “copper-minus AS”, was prepared by dissolving 2 g asparagine, 0.43 g KH2PO4, 0.3 g K2HPO4, 0.4 mL of a 0.5 mg/mL thiamine-HCl solution and 15 g sucrose in 1 liter of deionized water and treating the solution with 0.5 g Chelex 100 resin (Bio-Rad Analytical grade, 50-100 mesh, sodium form, cat#142-2822) by stirring at room temperature for 1 h. The pH was adjusted to 6.4, then MgSO4.7H2O (100 μg/mL), FeSO4.7H2O (1 μg/mL), CaCl2 (50 μg/mL), ZnSO4.7H2O (1 μg/mL), NaMoO4.2H2O (0.2 μg/mL) and MnCl2.4H2O (0.2 μg/mL) were added and the entire medium was sterilized by filtration. “Copper-plus AS” medium was prepared by adding CuCl2.2H2O to the copper-minus AS medium at 100 μM. Test compounds were dissolved in DMSO then dilutions in copper-minus AS and copper-plus AS media were prepared as 100 μL aliquots in flat-bottomed 96-well microtiter plates.
Phytophthora capsici was grown on petri plates, 9 cm in diameter, containing 15 mL V-8 agar, pH 7.0, containing 200 mL V-8 juice, 4 g CaCO3, and 20 g agar per liter. Plates were inoculated with 7-mm plugs from a 1-week old culture, incubated at 25° C. in the dark for 3 days, and then placed under fluorescent lights for 4 days to induce sporulation. Zoospore release from sporangia was induced by adding 15 mL of sterile deionized water (which had been treated with Chelex 100 resin using 0.5 g resin per liter of water by stirring at room temperature for 1 h) to each plate, and incubating for 10 min at 25° C. followed by 20 min at 4° C. The plates were returned to 25° C. for 10 min and the aqueous suspension of released zoospores was recovered. The zoospore suspension was adjusted to 5×10^4 spores/mL by dilution into Chelex 100-treated water. Microtiter plates were inoculated with 100 μL of spore suspension and incubated at 25° C. for 48 h before assessing fungal growth by measuring light scattering in a NepheloStar plate reader. Growth inhibition was determined by comparing growth in the presence of test compound with growth in control wells lacking test compound.
Results for growth inhibition by test compounds in copper-plus AS medium (“% Inhn Plus Copper Observed”) were compared with predicted values (“% Inhn Plus Copper Predicted”) that were calculated using the formula set forth by S. R. Colby in Weeds (1967), 15, 20-22 based on results obtained for the same compounds in copper-minus AS medium (“% Inhn Minus Copper Observed”) and the inhibition attributed to copper chloride alone, as determined by comparing growth in copper-minus AS and copper-plus AS media without any test compound across experiments. Results illustrate that hydrazones and copper produce a synergistic fungitoxic effect towards Phytophthora capsici.

[3] = test system: Phytophthora infestans; format: in vivo, Phytophthora infestans on tomato plant; conditions: 50 ppm hydrazone with 50 μM CuCl2.2H2O, applied 24 h before inoculation, assessed 7 days after inoculation, tomato
[4] = test system: Leptosphaeria nodorum (LEPTNO); assay: In vitro fungitoxicity (growth inhibition) against Leptosphaeria nodorum in copper-minus and copper-plus medium; format: cell-based; conditions: 0.05 μg/mL, 72 h
Description: In vitro fungitoxicity assays against Leptosphaeria nodorum (LEPTNO) were conducted using the liquid growth medium described by Coursen and Sisler (American Journal of Botany 1960, 47, 541-549) except that copper micronutrient, normally included as CuSO4, was omitted. The medium, termed “copper-minus”, was prepared by dissolving 10 g glucose, 1.5 g K2HPO4, 2 g KH2PO4 and 1 g (NH4)2SO4 in 1 liter of deionized water and treating the solution with 0.5 g Chelex 100 resin (Bio-Rad Analytical grade, 50-100 mesh, sodium form, cat#142-2822) by stirring at room temperature for 1 h. MgSO4.7H2O (0.5 g) was added, and stirring was continued for a further hour. Trace elements (minus CuSO4), and vitamins described by Coursen and Sisler were added from concentrated stock solutions and the entire medium was sterilized by filtration. Medium containing copper was prepared by adding CuCl2.2H2O to the copper-minus medium at 20 μM. […]
LEPTNO was grown on potato dextrose agar in 9 cm diameter petri dishes for 7 days. […] Microtiter plates were inoculated with 100 μL of this spore suspension and the plates incubated at 25° C. for 72 h before assessing fungal growth by measuring light scattering in a NepheloStar plate reader. Growth inhibition was determined by comparing growth in the presence of test compound with growth in control wells lacking test compound. […]

[5] = test system: Septoria tritici isolate USA-184; assay: In vitro fungitoxicity (growth inhibition) against Septoria tritici in copper-minus and copper-plus medium; format: cell-based; conditions: CuCl2 1 μM without test compound
Description: as §1, with “Septoria tritici” for “Ustilago maydis”, “2” for “20”, “10” for “200”
Septoria tritici isolate USA-184 was grown on potato dextrose agar at 18° C. under black lights for 3 days. A loopful of spores was transferred from the culture to a 15 mL tube containing 5 mL of sterile Chelex-treated water. The spores were centrifuged at 2000 rpm for 2 min, resuspended in 10 mL water, and centrifuged again. […] Microtiter plate wells containing test compound of DMSO (control) as described above were inoculated with 100 μL of this spore suspension and the plates incubated at 25° C. for 90 h before assessing fungal growth by measuring light scattering in a NepheloStar plate reader. Growth inhibition was determined by comparing growth in the presence of test compound with growth in control wells lacking test compound. […]

[6] = test system: Staphylococcus aureus, Escherichia coli, Aspergillus niger and A. flavus; conditions: literature report, Proceedings of the National Academy of Sciences, India 1991; cited from earlier work

For `O=C(N/N=C/c1c(O)cccc1Cl)c1ccc([N+](=O)[O-])cc1` [Compound 50], the “% Inhn. Plus copper Predicted” value [1] was 20.4% and the “% Inhn Plus copper Predicted” value [2] was 5.1%.

For `O=C(N/N=C/c1cc(Cl)c(Cl)cc1O)c1ccccc1` [Compound 5], the melting point was 206 to 208 °C, the “TLB % Control” value [3] was 66.1% and the “LEPTNO % Inhn. Plus Copper Observed” value ([4]; copper-plus medium (CuCl2, 10 μM)) was 97.8%. It also gave an inhibition of growth at 0.05 µg/mL ([4]; Parastagonospora nodorum, copper-minus medium, read-out: LEPTNO % Inhn. Minus Copper Observed) of 0.1%.

For `O=C(N/N=C/c1cccc(Cl)c1O)c1cccc(Cl)c1` [Compound 58], the “% Inhn. Plus copper Predicted” value [1] was 42.1% and the “% Inhn Plus copper Predicted” value [2] was 13.2%.

In the case of `O.O.[Cl][Cu][Cl]` [CuCl2, CuCl2.2H2O, reference compound], the “% Inhibition, copper chloride alone” value [5] is reported as 0%, the “% Inhibition, copper chloride alone” value ([5]; listed as copper chloride) is reported as “no effect on growth” and the “% Inhn., copper chloride alone” value ([1]; CuCl2 10 μM without test compound) is reported as 11.9%. The “% Inhn, copper chloride alone” value ([2]; CuCl2 50 uM without test compound, across experiments) was 4.5 ± 7.9%.

In the case of `O=C(NN=Cc1ccccc1O)c1ccccc1O` [o-hydroxybenzaldehyde-N-salicyloylhydrazone], the antimicrobial activity [6] is listed as “Antimicrobial activity has been reported”.

In the case of `O=C(N/N=C/c1c(Cl)ccc(Cl)c1O)c1cccc(Cl)c1` [Compound 25], the “% Inhn. Plus copper Predicted” value [1] is reported as 14.7% and the “% Inhn Plus copper Predicted” value [2] is reported as 4.5%.

In the case of `Cc1ccc(C(=O)N/N=C/c2ccc(Cl)c(Cl)c2O)c(O)c1` [Compound 20], the “% Inhn. Plus copper Predicted” value [1] is reported as 69.6% and the “% Inhn Plus copper Predicted” value [2] is reported as 4.5%.
